From PMC11671526, “β-caryophyllene sensitizes hepatocellular carcinoma cells to chemotherapeutics and inhibits cell malignancy through targeting MAPK signaling pathway” (Frontiers in Pharmacology, 2024)

How the values were obtained:
Type in all cases: cell-based, human
SMMC-7721 cells [1] = test: Transwell migration assay; conditions: 48 h, vs ethanol control
Experimental: (§1) The transwell migration and invasion experiments were conducted using a 24-well plate (cat# 3422, Corning). HepG2 and SMMC-7721 cells (5 × 10^4) were suspended in 100 µL of medium supplied with ethanol, 150 and 300 µM of BCP and added to the top chamber, while 600 µL of complete medium containing 10% FBS was added into the lower chamber. After 48 h of incubation at 37°C, the cells from the top chamber were carefully removed using a cotton swab, while the cells penetrated through the membrane were fixed using 600 µL of 70% methanol for 15 min. To stain the cells, 600 µL of 0.2% crystal violet was used to treat the Transwell inserts for 10 min, followed by washing and drying, and the membranes of the inserts were photographed using an inverted microscope (Leica DM13000 B). The positive staining area was calculated using ImageJ software.

HepG2 cells [2] = test: RT-qPCR of MAPK signaling pathway genes; conditions: BCP-treated HepG2 cells vs control cells
Experimental: HepG2 cells were treated by 150 µM BCP or ethanol for 24 h, followed by total RNA extraction using the TRIzol reagent (Thermo Fisher Scientific, cat#15596026). The quality and concentration of RNA were examined by MOPS RNA electrophoresis and Eppendorf BioSpectrometer. The transcriptome analysis was performed by BGI-Wuhan China. The RNA-seq dataset of this study is accessible in the Gene Expression Omnibus (GEO) with an access number of GSE276099. The sequence library for each sample was prepared using the BGISEQ-500 platform with a 50-bp single-end (SE50) format. HISAT (v2.2.1) was used to align the clean reads to the reference genome and alignment of the clean reads to the reference genes was carried out using Bowtie2 (v2.4.5) ([Langmead and Salzberg, 2012]; [Kim et al., 2015]). Gene expression levels were calculated by RSEM (v1.3.1) ([Li and Dewey, 2011]). Analysis of differential gene expression was performed using edgeR in the Bioconductor software package ([Robinson et al., 2010]). Using a standard protocol, the RNA samples were also examined by reverse transcription and quantitative polymerase chain reaction (RT-qPCR). In brief, for reverse transcription, total RNA (1 μg) and gDNA wiper Mix were incubated at 42°C for 2 min. The samples were immediately incubated with a master mix containing 10 pmol/μL of poly (dT) primers at 37°C for 15 min and 85°C for 5 s. […]

SMMC-7721 cells [3] = test: Matrigel transwell invasion assay; conditions: 48 h, vs control
Experimental: as §1
(§2) For invasion assay, Matrigel (Corning, cat# 356234) was used to precoat the top chamber. Cells (8 × 10^4) were added to the top chamber and the following procedure was the same as the migration assay described above.

HepG2 cells [4] = test: Matrigel transwell invasion assay; conditions: 48 h, vs control
Experimental: as §1, §2

Compound: C=C1CC/C=C(\C)CC[C@@H]2[C@@H]1CC2(C)C [BCP, β-caryophyllene]
- reduction of cell migration (SMMC-7721 cells [1]; SMMC-7721, 150 µM): 18.06%
- reduction of cell migration (SMMC-7721 cells [1]; SMMC-7721, 300 µM): 52.19%
- RT-qPCR verification of differential expression of NR4A1, CSF1R, PGF, ARTN, CACNA1E (HepG2 cells [2]): confirmed
- decrease of Matrigel infiltration (invasion) (SMMC-7721 cells [3]; SMMC-7721, 150 µM): 17.67%
- decrease of Matrigel infiltration (invasion) (SMMC-7721 cells [3]; SMMC-7721, 300 µM): 49.64%
- decrease of Matrigel infiltration (invasion) (HepG2 cells [4]; HepG2, 150 µM): 46.3%
- decrease of Matrigel infiltration (invasion) (HepG2 cells [4]; HepG2, 300 µM): 70.03%
